In patent US11179450B2, “Long chain antigen containing interepitope sequence that promotes antigen presentation to T cells” (MIE UNIVERSITY, priority 2013, dated 2021):

Tests used:
[1] = system: NY p81 specific CD8+ T cells; experiment: Specific CD8+ T cell induction in mice, intracellular cytokine staining (NY p81 epitope); type: in vivo, BALB/c mice; conditions: FIG. 5; ESO1 LP vaccines complexed with CHP, CpG oligo DNA
Excerpt: (§1) A long chain peptide antigen ESO1 LP (native type) (Sequence No. 16) and a long chain peptide antigen ESO1 LP (Y6) (Sequence No. 17), both containing a mouse CD8+ T cell epitope sequence (NY p81 or NY p82) and a mouse CD4+ T cell epitope sequence (NY p91) that are derived from human NY-ESO-1 antigen, were synthesized. As the interepitope sequence between epitopes, the native amino acid sequence of NY-ESO-1 was retained in the ESO1 LP (native type) and the sequence of six consecutive tyrosines (Y6) was used in the ESO1 LP (Y6). Vaccines containing the respective long chain peptide antigens were administered to mice in the same manner as in FIG. 1 and the frequencies of CD8+ T cells and CD4+ T cells specific to the respective epitope sequences were measured by the intracellular cytokine staining method.
(§2) Long chain peptide antigens MEN, all containing three types of mouse CD8+ T cell epitope sequences (MA p265 (Sequence No. 27), NY p81 (Sequence No. 29), and mERK2 9m (Sequence No. 28)), were synthesized. The interepitope sequences between the respective epitopes were one to six consecutive tyrosines (Sequence Nos. 1 and 9-12). Vaccines containing the respective long chain peptide antigens were administered to mice in the same manner as in FIG. 1 and the frequencies of CD8+ T cells specific to the respective epitope sequences were measured by the intracellular cytokine staining method.
as §2, with “five” for “one”, “ten” for “six”, “13-15).” for “9-12).”, “method. […]” for “method.”

[2] = system: NY p91 specific CD4+ T cells; experiment: Specific CD4+ T cell induction in mice, intracellular cytokine staining (NY p91 epitope); type: in vivo, BALB/c mice; conditions: FIG. 5; ESO1 LP vaccines complexed with CHP, CpG oligo DNA
Excerpt: as §1
Each CHP/long chain peptide complex as the vaccine and the CpG oligo DNA as the adjuvant were administered at the same time to a mouse. Administration was performed by subcutaneous injection on the back of the mouse. As the dose, the CHP/long chain peptide complex was administered at 0.05 to 0.1 mg equivalent of long chain peptide per administration. […]
The mouse spleen cells were added at 5×10^6 cells/0.5 mL per well to a 24-well culture plate (Nunc). […] The cells were analyzed by a flow cytometer (FACS Canto II, BD Biosciences) using the included analysis software (FACSDiva).

CD8+ T cell = conditions: compared with NY p81; Non-Patent Document 8; cited from earlier work
[3] = system: NY p157 specific CD8+ T cell clone 1G4 cells; experiment: Antigen presentation by LCL electroporated with mRNA vaccine, IFN-γ ELISPOT (1G4); type: cell-based, human; conditions: FIG. 11; mRNA introduced into LCL by electroporation
Description: (§3) The interepitode sequences between the respective epitopes were the six consecutive amino acids shown in FIG. 11, namely sequence Nos. 31-34. Each mRNA was introduced in vitro as a vaccine into LCL by electroporation. Using these LCL as the antigen-presenting cells, they were co-cultured with CD8+ T cell clone 1G4 cells specific to NY p157 or CD8+ T cell clone RNT007#45 cells specific to MA4 p143 and the activation of the CD8+ T cells due to antigen presentation was measured by the IFN-γ ELISPOT method.
(§4) mRNA was introduced by an electroporation method (300V, 700 μs) using ECM830 into LCL that was rinsed and suspended in the same manner as in (9). The cells were cultured for 24 hours at 37° C. in the presence of 5% CO2 and then used as antigen-presenting cells.
(§5) 75 μL aliquots of anti-IFN-γ antibody for capture, diluted to an appropriate concentration, were dispensed into a 96-well plate (Millipore Corp., Multiscreen HA, MAHAS4510) specially designed for ELISPOT and left to stand overnight at 4° C. After discarding the liquid and rinsing with RPMI medium, 100 μL aliquots of RPMI medium containing 10% fetal bovine serum were dispensed and the plate was left to stand for not less than 1 hour at 37° C. The liquid was discarded, and the LCL prepared in (9) or (10) was adjusted to 5×10^4 cells/100 μL/well and added to each well. […]

[4] = system: MA4 p143 specific CD8+ T cell clone RNT007 #45 cells; experiment: Antigen presentation by LCL electroporated with mRNA vaccine, IFN-γ ELISPOT (RNT007 #45); type: cell-based, human; conditions: FIG. 11; mRNA introduced into LCL by electroporation
Description: as §3, §4, §5

Molecule | induction of NY p81 specific CD8+ T cells [1] | induction of NY p91 specific CD4+ T cells [2] | immunogenicity (CD8+ T cell) | activation of 1G4 cells [3] | activation of RNT007 #45 cells [4]
GPESRLLYYYYYYYLAMPFATPMEAELARRSLA (Long chain peptide antigen, containing a mouse CD8+ T cell epitope sequence (NY p81) and a mouse CD4+ T cell epitope sequence (NY p91)) [ESO1 LP (Y6)] | significant | clearly observed |  |  | 
GARGPESRLLEFYLAMPFATPMEAELARRSLAQDAPPLPV [ESO1 LP (native type), reference compound] | hardly observed | clearly observed |  |  | 
GPESRLL (Peptide sequence containing mouse CD8+ T cell epitope, NY p82) |  |  | poorer in immunogenicity than NY p81 |  | 
NMW(Y6) mRNA: mRNA (RNA vaccine) from template cDNA Sequence No. 31, encoding long chain peptide antigen NMW with Y6 interepitope sequence (nucleic acid, mRNA transcribed from template cDNA; DNA sequence of a long chain peptide antigen, containing three types of human CD8+ T cell recognition epitope sequences (NY p157, MA4 p143, and WT1 p235)) DNA: GGATCCATGAGCCTCCTGATGTGGATTACCCAATGCTATTACTACTATTACTACAACTATAAGAGATGTTTCCCCGTGATCTATTACTACTACTACTATTGCTATACATGGAATCAGATGAACCTGTGAGAATTC |  |  |  | clearly confirmed | clearly confirmed
